{"source": "patent US8722929B2", "about": "“N-[2-amino-4-(phenylmethoxy)phenyl] amides and related compounds as potassium channel modulators” (Valeant Pharmaceuticals International, priority 2006, dated 2014)", "biological_target": "T1, KCNQ 2/3 (Rattus norvegicus, UniProt O88943+O88944)", "T1 construct": "endogenous in cells; host or cells: PC-12 cells differentiated with NGF", "assay": "KCNQ 2/3 activator assay by rubidium (Rb+) efflux from NGF-differentiated PC-12 cells", "type": "cell-based", "protocol": "Compounds of the following formula were assayed as KCNQ 2/3 activators by measuring rhubidium release.\nPC-12 cells were grown at 37° C. and 5% CO2 in DMEM/F12 Medium supplemented with 10% horse serum, 5% fetal bovine serum, 2 mM glutamine, 100 U/ml penicillin, 100 U/ml streptomycin. They were plated in poly-D-lysine-coated 96-well cell culture microplates at a density of 40,000 cells/well and differentiated with 100 ng/ml NGF-7s for 2-5 days. For the assay, the medium was aspirated and the cells were washed once with 0.2 ml in wash buffer (25 mM Hepes, pH 7.4, 150 mM NaCl, 1 mM MgCl2, 0.8 mM NaH2PO4, 2 mM CaCl2). The cells were then loaded with 0.2 ml Rb^+ loading buffer (wash buffer plus 5.4 mM […], 5 mM glucose) and incubated at 37° C. for 2 h. Attached cells were quickly washed three times with buffer (same as Rb^+ loading buffer, but containing 5.4 mM KCl instead of RbCl) to remove extracellular Rb^+. Immediately following the wash, 0.2 ml of depolarization buffer (wash buffer plus 15 mM KCl) with or without compounds was added to the cells to activate efflux of potassium ion channels. After incubation for 10 min at room temperature, the supernatant was carefully removed and collected. Cells were lysed by the addition of 0.2 ml of lysis buffer (depolarization buffer plus 0.1% Triton X-100) and the cell lysates were also collected. If collected samples were not immediately analyzed for Rb^+ contents by atomic absorption spectroscopy (see below), they were stored at 4° C. without any negative effects on subsequent Rb^+ analysis.\nThe concentration of Rb^+ in the supernatants (Rb^+ sup) and cell lysates (Rb^+Lys) was quantified using an ICR8000 flame atomic absorption spectrometer (Aurora Biomed Inc., Vancouver, B.C.) under conditions defined by the manufacturer. One 0.05 ml samples were processed automatically from microtiter plates by dilution with an equal volume of Rb^+ sample analysis buffer and injection into an air-acetylene flame. The amount of Rb^+ in the sample was measured by absorption at 780 nm using a hollow cathode lamp as light source and a PMT detector. A calibration curve covering the range 0-5 mg/L Rb^+ in sample analysis buffer was generated with each set of plates. The percent Rb^+ efflux (F) was defined by F=[Rb^+Sup/(Rb^+Sup+Rb^+Lys)]×100%\nThe effect (E) of a compound was defined by: E=[(Fc−Fb)/(Fs−Fb)]×100% where the Fc is the efflux in the presence of compound in depolarization buffer, Fb is the efflux in basal buffer, and Fs is the efflux in depolarization buffer, and Fc is the efflux in the presence of compound in depolarization buffer. The effect (E) and compound concentration relationship was plotted to calculate an EC50 value, a compound's concentration for 50% of maximal Rb^+ efflux.", "key": {"[1]": {"conditions": "Rb+ efflux, PC-12 cells, depolarization buffer 15 mM KCl, 10 min, compounds of formula A, read-out: EC50"}, "[2]": {"conditions": "Rb+ efflux, PC-12 cells, depolarization buffer 15 mM KCl, 10 min, compounds of formula B, read-out: EC50"}}, "note": "Like-named read-outs stand apart in the source and are kept apart here."}
{"smiles": "CC(C)(C)CC(=O)Nc1ccc(OCc2ccc(Cl)s2)cc1N", "note": "[III, N-(2-amino-4-((5-chlorothiophen-2-yl)methoxy)phenyl)-3,3-dimethylbutanamide]", "values": [{"measurement": "EC50", "setting": "[1]", "value": "< 2", "unit": "µM"}]}
{"smiles": "CCOC(=O)Nc1ccc(NCc2ccc(F)cc2)nc1N", "note": "[flupirtine]", "values": [{"measurement": "EC50", "setting": "[1]", "value": "< 15", "unit": "µM"}, {"measurement": "EC50", "setting": "[2]", "value": "< 15", "unit": "µM"}]}
{"smiles": "CCOC(=O)Nc1ccc(NCc2ccc(F)cc2)cc1N", "note": "[retigabine, N-[2-amino-4-(4-fluorobenzylamino)phenyl]carbamic acid, ethyl ester]", "values": [{"measurement": "EC50", "value": "< 2", "unit": "µM"}, {"measurement": "EC50", "setting": "Rb+ efflux, PC-12 cells, depolarization buffer 15 mM KCl, 10 min, compounds of formula B", "value": "< 2", "unit": "µM"}]}
{"smiles": "CC(C)(C)CC(=O)Nc1ccc(OCc2ccc(F)cc2)cc1N", "note": "[I, N-(2-amino-4-(4-fluorobenzyloxy)phenyl)-3,3-dimethylbutanamide]", "values": [{"measurement": "EC50", "setting": "[1]", "value": "< 2", "unit": "µM"}]}
{"smiles": "COC(=O)Nc1ccc(OCc2ccc(F)cc2)cc1N", "note": "[V, Methyl 2-amino-4-(4-fluorobenzyloxy)phenylcarbamate]", "values": [{"measurement": "EC50", "setting": "[2]", "value": "< 15", "unit": "µM"}]}
{"smiles": "CC(C)(C)CC(=O)Nc1ccc(OCc2ccc(F)c(F)c2)cc1N", "note": "[II, N-(2-amino-4-(3,4-difluorobenzyloxy)phenyl)-3,3-dimethylbutanamide]", "values": [{"measurement": "EC50", "setting": "[1]", "value": "< 2", "unit": "µM"}]}
